From patent US20220348558A1, “INHIBITORS OF ENCEPHALITIC ALPHAVIRUSES” (priority 2019, published 2022)

Assays:
[1] = test system: VEEV TC83; assay: microbe, parasite or virus in culture; assay type: cell-based; details: Venezuelan equine encephalitis virus, Vero 76, 48 h, read-out: VEEV TC83 EC50 nM
[2] = test system: WEEV California; assay: microbe, parasite or virus in culture; assay type: cell-based; details: Western equine encephalitis virus, Vero 76, 48 h, read-out: WEEV California EC50 nM

Compound	EC50 [1] [nM]	EC50 [2] [nM]
COc1cc(F)ccc1-n1c([C@H]2CCCN2)nc2ccc([N+](=O)[O-])cc2c1=O [Example 26, (R)-3-(2-methoxy-4-fluorophenyl)-6-nitro-2-(pyrrolidin-2-yl) quinazolin-4 (3H)-one]	> 1000	> 1000
COc1ccc(-n2c([C@@H]3CCCN3)nc3c(F)cc(C#N)cc3c2=O)cc1 [Example 79, (S)-8-fluoro-3-(4-methoxyphenyl)-4-oxo-2-(pyrrolidin-2-yl)-3,4-dihydroquinazoline-6-carbonitrile]	501 to 1000	501 to 1000
CN[C@H](C)c1nc2ccc([N+](=O)[O-])cc2c(=O)n1-c1ccc(OC)cc1 [Example 207, (R)-3-(4-methoxyphenyl)-2-(1-(methylamino)ethyl)-6-nitroquinazolin-4 (3H)-one]	51 to 150	151 to 500
Cc1ccc(-c2cc(C#N)cc3c(=O)n(-c4ccc(O)c(F)c4)c([C@H]4CCCN4)nc23)cn1 [Example 167, (R)-3-(3-fluoro-4-hydroxyphenyl)-8-(6-methylpyridin-3-yl)-4-oxo-2-(pyrrolidin-2-yl)-3,4-dihydroquinazoline-6-carbonitrile]	51 to 150	151 to 500
COc1ccc(-n2c([C@H]3CCCN3)nc3c(-c4cccnc4)cc([N+](=O)[O-])cc3c2=O)cc1 [Example 85, (R)-3-(4-methoxyphenyl)-6-nitro-8-(pyridin-3-yl)-2-(pyrrolidin-2-yl) quinazolin-4 (3H)-one]	1 to 50	1 to 50
COc1ccc(-n2c(C3CCCN3)nc3c(-c4ccc(C(C)=O)nc4)cc(C#N)cc3c2=O)cc1F (centres unmarked) [Example 129, 8-(6-acetylpyridin-3-yl)-3-(3-fluoro-4-methoxyphenyl)-4-oxo-2-(pyrrolidin-2-yl)-3,4-dihydroquinazoline-6-carbonitrile]	1 to 50	1 to 50
COc1c(F)cc(-n2c(C3CCCN3)nc3c(C#CC(C)(C)O)cc(C#N)cc3c2=O)cc1F (centres unmarked) [Example 193, 3-(3,5-Difluoro-4-methoxyphenyl)-8-(3-hydroxy-3-methylbut-1-yn-1-yl)-4-oxo-2-(pyrrolidin-2-yl)-3,4-dihydroquinazoline-6-carbonitrile]	51 to 150	51 to 150
Cc1cccc(-n2c([C@H]3CCCN3)nc3ccc([N+](=O)[O-])cc3c2=O)c1 [Example 36, (R)-6-nitro-2-(pyrrolidin-2-yl)-3-(m-tolyl)quinazolin-4 (3H)-one]	51 to 150	501 to 1000
COc1ccc(-n2c([C@H]3CCCN3)nc3c(C)cc(C#N)cc3c2=O)cc1F [Example 52, (R)-3-(3-fluoro-4-methoxyphenyl)-8-methyl-4-oxo-2-(pyrrolidin-2-yl)-3,4-dihydroquinazoline-6-carbonitrile]	1 to 50	1 to 50
COc1ccc(-c2cc(C#N)cc3c(=O)n(-c4ccc(OC)c(F)c4)c(C4CCCN4)nc23)cc1F (centres unmarked) [Example 149, 3,8-Bis(3-fluoro-4-methoxyphenyl)-4-oxo-2-(pyrrolidin-2-yl)-3,4-dihydroquinazoline-6-carbonitrile]	1 to 50	1 to 50
CN1CCC(N2CCC[C@@H]2c2nc3ccc([N+](=O)[O-])cc3c(=O)n2-c2ccccc2)CC1 [Example 4, (R)-2-(1-(1-methylpiperidin-4-yl)pyrrolidin-2-yl)-6-nitro-3-phenylquinazolin-4 (3H)-one]	151 to 500	> 1000
COc1ccc(-n2c([C@@H]3CCCN3)nc3c(Br)cc(C#N)cc3c2=O)cc1F [Example 97, (S)-8-bromo-3-(3-fluoro-4-methoxyphenyl)-4-oxo-2-(pyrrolidin-2-yl)-3,4-dihydroquinazoline-6-carbonitrile]	1 to 50	1 to 50
COc1ccc(-n2c([C@H]3CC(=O)CN3)nc3c(-c4ccc(C)nc4)cc(C#N)cc3c2=O)cc1F [Example 186, (R)-3-(3-fluoro-4-methoxyphenyl)-8-(6-methylpyridin-3-yl)-4-oxo-2-(4-oxopyrrolidin-2-yl)-3,4-dihydroquinazoline-6-carbonitrile]	151 to 500	501 to 1000
COc1ccc(-n2c(C3CCCN3)nc3c(-c4ccc(OC)c(OC)c4)cc(C#N)cc3c2=O)cc1F (centres unmarked) [Example 152, 8-(3,4-Dimethoxyphenyl)-3-(3-fluoro-4-methoxyphenyl)-4-oxo-2-(pyrrolidin-2-yl)-3,4-dihydroquinazoline-6-carbonitrile]	1 to 50	1 to 50
COc1ccc(-n2c(C3CCCN3)nc3c(-c4ccc(OC(F)(F)F)cc4)cc(C#N)cc3c2=O)cc1F (centres unmarked) [Example 151, 3-(3-Fluoro-4-methoxyphenyl)-4-oxo-2-(pyrrolidin-2-yl)-8-(4-(trifluoromethoxy)phenyl)-3,4-dihydroquinazoline-6-carbonitrile]	1 to 50	1 to 50
CN[C@@H](C)c1nc2ccc([N+](=O)[O-])cc2c(=O)n1-c1ccc(OC)cc1 [Example 206, (S)-3-(4-methoxyphenyl)-2-(1-(methylamino)ethyl)-6-nitroquinazolin-4 (3H)-one]	51 to 150	151 to 500

Compound	EC50 [1] [nM]	EC50 [2] [nM]
COc1ccc(-c2cc(C#N)cc3c(=O)n(-c4ccc(OC)c(F)c4)c(C4CCCN4)nc23)cc1 (centres unmarked) [Example 147, 3-(3-Fluoro-4-methoxyphenyl)-8-(4-methoxyphenyl)-4-oxo-2-(pyrrolidin-2-yl)-3,4-dihydroquinazoline-6-carbonitrile]	1 to 50	1 to 50
COc1ccc(-n2c([C@H]3CCCN3)nc3c(Br)cc([N+](=O)[O-])cc3c2=O)cc1 [Example 80, (R)-8-bromo-3-(4-methoxyphenyl)-6-nitro-2-(pyrrolidin-2-yl) quinazolin-4 (3H)-one]	1 to 50	1 to 50
COc1ccc(-n2c([C@H](C)N(C)C)nc3ccc([N+](=O)[O-])cc3c2=O)cc1 [Example 208, (S)-2-(1-(dimethylamino)ethyl)-3-(4-methoxyphenyl)-6-nitroquinazolin-4 (3H)-one]	51 to 150	51 to 150
COc1ccc(-n2c([C@@H]3C[C@@H](F)CN3)nc3c(C)cc([N+](=O)[O-])cc3c2=O)cc1 [Example 63, 2-((2S,4R)-4-fluoropyrrolidin-2-yl)-3-(4-methoxyphenyl)-8-methyl-6-nitroquinazolin-4 (3H)-one]	> 1000	> 1000
COc1ccc(-n2c(C[C@H]3CCCN3)nc3c(-c4ccc(C)nc4)cc(C#N)cc3c2=O)cc1F [Example 117, (R)-3-(3-fluoro-4-methoxyphenyl)-8-(6-methylpyridin-3-yl)-4-oxo-2-(pyrrolidin-2-ylmethyl)-3,4-dihydroquinazoline-6-carbonitrile]	151 to 500	501 to 1000
COc1ccc(-n2c([C@H]3CCCN3)nc3ccc([N+](=O)[O-])cc3c2=O)cc1F [Example 24, (R)-3-(3-fluoro-4-methoxyphenyl)-6-nitro-2-(pyrrolidin-2-yl) quinazolin-4 (3H)-one]	1 to 50	1 to 50
COc1ccc(-n2c([C@@]3(C)CCCN3)nc3c(-c4ccc(C)nc4)cc(C#N)cc3c2=O)cc1F [Example 141, (R)-3-(3-fluoro-4-methoxyphenyl)-8-(6-methylpyridin-3-yl)-2-(2-methylpyrrolidin-2-yl)-4-oxo-3,4-dihydroquinazoline-6-carbonitrile]	1 to 50	1 to 50
COc1ccc(-n2c(C3CCCN3)nc3c(-c4ccc(N5CCOCC5)nc4)cc(C#N)cc3c2=O)cc1F (centres unmarked) [Example 124, 3-(3-fluoro-4-methoxyphenyl)-8-(6-morpholinopyridin-3-yl)-4-oxo-2-(pyrrolidin-2-yl)-3,4-dihydroquinazoline-6-carbonitrile]	1 to 50	1 to 50
COCCOc1ccc(-c2cc(C#N)cc3c(=O)n(-c4ccc(OC)c(F)c4)c(C4CCCN4)nc23)cc1 (centres unmarked) [Example 154, 3-(3-Fluoro-4-methoxyphenyl)-8-(4-(2-methoxyethoxy)phenyl)-4-oxo-2-(pyrrolidin-2-yl)-3,4-dihydroquinazoline-6-carbonitrile]	1 to 50	1 to 50
O=c1c2cc([N+](=O)[O-])ccc2nc(C2CCCN2)n1-c1ccccc1 (centres unmarked) [Example 1, 6-nitro-3-phenyl-2-(pyrrolidin-2-yl) quinazolin-4 (3H)-one]	51 to 150	51 to 150
COc1ccc(-n2c([C@H]3CCCN3)nc3c(-c4ccc(C)nc4)cc(C#N)cc3c2=O)cc1F [Example 102, (R)-3-(3-fluoro-4-methoxyphenyl)-8-(6-methylpyridin-3-yl)-4-oxo-2-(pyrrolidin-2-yl)-3,4-dihydroquinazoline-6-carbonitrile]	1 to 50	1 to 50
COc1ccc(-n2c([C@@H]3CCNC3)nc3c(C)cc([N+](=O)[O-])cc3c2=O)cc1F [Example 67, (R)-3-(3-fluoro-4-methoxyphenyl)-8-methyl-6-nitro-2-(pyrrolidin-3-yl) quinazolin-4 (3H)-one]	151 to 500	151 to 500
C=C(C)c1ccc(-c2cc(C#N)cc3c(=O)n(-c4cc(F)c(OC)c(F)c4)c(C4CCCN4)nc23)cc1 (centres unmarked) [Example 172, 3-(3,5-difluoro-4-methoxyphenyl)-4-oxo-8-(4-(prop-1-en-2-yl)phenyl)-2-(pyrrolidin-2-yl)-3,4-dihydroquinazoline-6-carbonitrile]	51 to 150	51 to 150
COCCOc1c(F)cc(-n2c(C3CCCN3)nc3c(-c4cc(C)nc(C)c4)cc(C#N)cc3c2=O)cc1F (centres unmarked) [Example 162, 3-(3,5-difluoro-4-(2-methoxyethoxy)phenyl)-8-(2,6-dimethylpyridin-4-yl)-4-oxo-2-(pyrrolidin-2-yl)-3,4-dihydroquinazoline-6-carbonitrile]	51 to 150	51 to 150
COc1ccc(-n2c([C@H]3CCCN3)nc3ccc(F)c(F)c3c2=O)cc1 [Example 28, (R)-5,6-difluoro-3-(4-methoxyphenyl)-2-(pyrrolidin-2-yl) quinazolin-4 (3H)-one]	151 to 500	> 1000
